Data reported in PubChem BioAssay AID1645865 (Buhrlage Lab, Dana-Farber Cancer Institute and Novartis …, 2021).
Calls of active or inactive are those of the source.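 How the source made its calls: active means maximal inhibition of the USP30 enzyme reaching 30% or more across the dose series; inactive means the rest.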

The compounds below were run against Ubiquitin carboxyl-terminal hydrolase 30 (Homo sapiens) (UniProt Q70CQ3) (assay: ubiquitin-specific protease 30 DUB inhibitors, concentration-effect, biochemical, validation of primary actives (AID 1645865)). Details: purified USP30, Ub-rhodamine cleavage, fluorescence, 2 h.
Chain of Ubiquitin carboxyl-terminal hydrolase 30 (Homo sapiens) (Q70CQ3 whole entry, looked up): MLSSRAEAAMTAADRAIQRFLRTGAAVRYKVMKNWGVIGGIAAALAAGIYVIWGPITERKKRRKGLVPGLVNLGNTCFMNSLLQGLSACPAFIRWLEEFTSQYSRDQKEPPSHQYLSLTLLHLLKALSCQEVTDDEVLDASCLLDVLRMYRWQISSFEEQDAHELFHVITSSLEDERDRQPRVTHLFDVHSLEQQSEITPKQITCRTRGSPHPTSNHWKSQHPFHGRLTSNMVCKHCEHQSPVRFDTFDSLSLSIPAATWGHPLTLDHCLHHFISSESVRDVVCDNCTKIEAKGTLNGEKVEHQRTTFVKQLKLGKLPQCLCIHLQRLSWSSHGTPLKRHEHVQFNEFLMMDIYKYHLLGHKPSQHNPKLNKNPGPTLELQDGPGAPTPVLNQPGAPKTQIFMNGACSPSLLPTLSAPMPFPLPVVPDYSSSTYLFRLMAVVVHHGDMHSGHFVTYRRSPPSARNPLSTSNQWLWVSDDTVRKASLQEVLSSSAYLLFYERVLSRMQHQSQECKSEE

SMILES | IC50
COc1ccc(CCNC(=O)c2noc3c2CCc2sccc2-3)cc1OC | 39.9 µM
O=C(CSc1ncnc2c1oc1ccccc12)Nc1ccc2c(c1)OCCO2 | 18.7 µM
COc1ccc(OCC(=O)Nc2ccc(C)c(OCc3cc(=O)n4ccccc4n3)c2)cc1 | 4.77 µM
CN(C)C1CCN(C(=O)c2cc(-c3ccn(-c4ccccc4)n3)n3ccccc23)CC1 | > 50 µM (inactive)
CCOc1ccc2[nH]c(=O)c(CN(C(=O)c3cccs3)C3CCCC3)cc2c1 | 10.2 µM
CCC(=O)Nc1ccc(-c2nc(Cn3cc(C)cn3)c(C)o2)cc1 | > 50 µM (inactive)
CCOc1ccccc1NC(=O)Cn1c(-c2ccc3c(c2)OCO3)cn(-c2ccc(OC)cc2)c1=O | > 50 µM (inactive)
O=C(Nc1ccc2c(c1)OCCO2)c1ccc(N2CCCC2=O)cc1 | 42.4 µM
C[C@H](NC(=O)Cc1ccccc1F)c1nc2cc(-c3ccccc3F)ncn2n1 | > 50 µM (inactive)
O=C(CN1C(=O)COc2ccc(Cl)cc21)Nc1cccc2ncccc12 | > 50 µM (inactive)
COC(=O)c1ccc(NC(=O)CSc2nnc(-c3ccc(O)cc3)n2Cc2ccco2)cc1 | 4.38 µM
CCOC(=O)c1cnc(C(F)(F)F)nc1Sc1n[nH]c(-c2cccs2)n1 | > 50 µM (inactive)
COC(=O)c1cc(C)sc1NC(=O)c1cccc(OC)c1OC | > 50 µM (inactive)
Cc1cn[nH]c1C1COCCN1C(=O)c1ccc2ncccc2c1 (stereo not drawn) | > 50 µM (inactive)
O=C(/C=C/c1ccc2c(c1)OCO2)Nc1nc2c(s1)COCC2 | 25.8 µM
COc1cccc(NC(=O)C2Cn3ccnc3C3(CCN(C(C)=O)CC3)O2)c1 (stereo not drawn) | > 50 µM (inactive)
Cn1cc(-c2cnc(-c3cccc(F)c3)nc2)cc1C(=O)NCc1cccnc1 | 30.7 µM
O=C(Nc1cccc2ccccc12)N1CCC(c2nc3c(nnn3Cc3ccc(F)cc3)c(=O)[nH]2)CC1 | 33.9 µM
O=C(Cc1ccccc1F)Nc1nc(-c2ccco2)c(-c2ccco2)s1 | > 50 µM (inactive)
CN1C(=O)COc2cc(-c3noc(C(=O)NC4CCCCCC4)n3)ccc21 | 24.7 µM
Cc1cc(=O)n(CC(=O)NCc2ccccc2F)c2c1c(C)nn2-c1ccccc1 | 32.7 µM
Cc1ccc2cccc(OCc3nnc(SCC(=O)c4ccc(Cl)cc4)n3C)c2n1 | 2.63 µM
COc1ccc(CCNC(=O)[C@H](CCSC)NC(=O)N2CCn3c2nc2ccccc23)cc1OC | 44 µM
COc1ccc(NC(=O)C2CC(=O)Nc3c(-c4ccc(Cl)cc4)cnn32)c(OC)c1 (stereo not drawn) | 8.18 µM

SMILES | IC50
COc1cccc(CNC(=O)c2ccc3c(c2)NC(=O)C2CCCN32)c1OC (stereo not drawn) | > 50 µM (inactive)
CC(=O)c1sc(NC(=O)c2ccccc2-c2ccc(C(F)(F)F)cc2)nc1C | 11 µM
COc1ccc(OC)c(-c2cc(C(=O)Nc3c(C)nn(Cc4ccccc4)c3C)no2)c1 | > 50 µM (inactive)
CS(=O)(=O)N1CCCc2cc(C(=O)Nc3ccc(Oc4ccccc4)cc3)ccc21 | > 50 µM (inactive)
COc1cccc2c1OCC(NS(=O)(=O)c1cc(C)ccc1C)C2 (stereo not drawn) | > 50 µM (inactive)
N#Cc1ccc(NC(=O)Nc2cccn(Cc3ccccc3F)c2=O)cc1 | 3.2 µM
Cc1ccc2[nH]c(=O)c(CN(CC3COCCO3)S(=O)(=O)c3ccc(F)cc3)cc2c1 (stereo not drawn) | 8.96 µM
Cc1nn(-c2ccccc2)c(C)c1C(=O)OCC(=O)Nc1cccc(C#N)c1 | > 50 µM (inactive)
COC1=CC(=O)c2c(O)c(C)c(CC(C)=O)c(O)c2C1=O | > 50 µM (inactive)
C=C[C@]1(C)C=C2C(=O)[C@]3(O)OC(=O)[C@@]4(CCCC(C)(C)[C@H]34)[C@@]2(O)CC1 | 27.8 µM
Cc1ccc(NC(=O)Cc2nnc3cc(-c4nc(C)no4)ccn23)cc1 | 4.06 µM
Cc1cc(NC(=O)c2[nH]nc3c2CCc2ccccc2-3)no1 | 4.47 µM
CCOc1cc(C2C3=C(CC(C)(C)CC3=O)Nc3onc(C)c32)ccc1O (stereo not drawn) | 37.3 µM
Cc1cc(C)c2cc(C(=O)NC3CCN(Cc4ccccc4)CC3)[nH]c2c1 | 8.5 µM
O=C(CCC1CCCCC1)Nc1ccccc1C(=O)N1CCOCC1 | > 50 µM (inactive)
O=C1NC(=O)/C(=C/c2ccc(OC(=O)c3ccc(Cl)cc3Cl)cc2)N1 | 2.41 µM
CCc1cccc2c(C(=O)COc3ccc(C#N)cc3)c[nH]c12 | 11.3 µM
O=C(Nc1cccc(-c2nc3ccccc3[nH]2)c1)c1cc2ccccc2oc1=O | 0.304 µM
c1ccc2c(c1)CCc1c-2nc2ccccc2c1N1CCOCC1 | > 50 µM (inactive)
COc1cccc2c1OCC(C(=O)NCc1ccc(F)cc1)=C2 | > 50 µM (inactive)
Cc1cc(Cl)c2c(c1)[C@]1(C(=O)N2)N2CCC[C@H]2[C@@H](C(=O)c2cc3ccccc3o2)[C@]12C(=O)Nc1ccccc12 | > 50 µM (inactive)
Cc1ccc(Cn2cc(-c3noc(-c4ccc[nH]4)n3)nn2)cc1 | 23.8 µM
Cc1cc(C(=O)Nc2cc(C)n(Cc3ccc(Cl)cc3)n2)no1 | > 50 µM (inactive)
CC(=O)N1CCCC(c2nc(C)cc(-c3cc(F)ccc3C(=O)O)n2)C1 (stereo not drawn) | > 50 µM (inactive)
